Patent publication US7468384B2, “Microbicidal composition” (Rohm and Haas Company, priority 2004, dated 2008)
Read-outs that look alike come from different tables or passages of the source.

Key:
Format in all cases: cell-based
[1] = tested on: Candida albicans (C. albicans—ATCC 10231); test: Synergy test, microtiter plate high resolution MIC assay, yeast; details: for MIC: Candida albicans
Outline: (§1)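 Values derive from Kull synergy index (Qa/QA + Qb/QB, ppm MIC endpoints, alone vs in mixture). Endpoints from high-resolution microtiter MICs spanning 2–10,000 ppm; bacterium ~5×10^6/mL in TSB or M9GY, yeast and mold 5×10^5/mL in PDB.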

[2] = tested on: Escherichia coli (E. coli—ATCC #8739); test: Synergy test, microtiter plate high resolution MIC assay, bacterium; details: Escherichia coli, ATCC8739, 24 h, read-out: MIC of component acting alone (QA / QB)
Outline: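 High-resolution MICs were found by adding microbicide to one microtitre column and making ten-fold dilutions with an automated liquid handler, giving endpoints from 2 ppm to 10,000 ppm active ingredient. The MIC is the lowest concentration that prevents growth. E. coli 8739, at roughly 5×10^6 cells per mL, grew in glucose/yeast-extract-supplemented minimal salt medium (M9GY). Values above one indicate antagonism.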

[3] = tested on: Aspergillus niger (A. niger—ATCC 16404); test: Synergy test, microtiter plate high resolution MIC assay, mold; details: for MIC: Aspergillus niger; for SI (calculated synergy index): A. niger 16404, PDB
Outline: as §1

[4] = tested on: Pseudomonas aeruginosa (P. aeruginosa—ATCC #15442); test: Synergy test, microtiter plate high resolution MIC assay, bacterium; details: for MIC: Pseudomonas aeruginosa
Outline: as §1

Cn1sccc1=O [2-methyl-3-isothiazolone, 2-methyl-4-isothiazolin-3-one]
MIC ([1]; ATCC10231, 24 h, read-out: MIC of component acting alone (QA / QB)): 200 µg/mL
MIC ([1]; ATCC10231, 24 h, read-out: Qa: end-point activity (MIC) of MI in the mixture (MI alone, QA, where Qb = 0)): 125 µg/mL
MIC ([1]; ATCC10231, 48 h, read-out: MIC of component acting alone (QA / QB)): 200 µg/mL
MIC ([1]; ATCC10231, 72 h, read-out: MIC of component acting alone (QA / QB)): 200 µg/mL
SI (calculated synergy index) ([1]; Table 5, C. albicans 10231, PDB, 24 hours): 1.00
SI (calculated synergy index) ([1]; Table 6, C. albicans 10231, PDB, 24 hours): 1.00
Qa: end-point activity (MIC) of MI in the mixture (MI alone, QA, where Qb = 0) ([1]; Table 6, C. albicans 10231, PDB, 24 hours, B = Cocamidopropyl PG-dimonium chloride phosphate): 125 ppm
MIC [2]: 30 µg/mL
MIC ([3]; ATCC16404, 96 h, read-out: MIC of component acting alone (QA / QB)): 400 µg/mL
MIC ([3]; ATCC16404, 96 h, read-out: Qa: end-point activity (MIC) of MI in the mixture (MI alone, QA, where Qb = 0)): 400 µg/mL
MIC ([3]; ATCC16404, 168 h, read-out: MIC of component acting alone (QA / QB)): 500 µg/mL
MIC ([3]; ATCC16404, 168 h, read-out: Qa: end-point activity (MIC) of MI in the mixture (MI alone, QA, where Qb = 0)): 400 µg/mL
SI (calculated synergy index) ([3]; Table 5, 7 days): 1.00
SI (calculated synergy index) ([3]; Table 6, 4 days): 1.00
MIC of component acting alone (QA / QB) ([4]; P. aeruginosa 15442, M9GY, 48 hours): 30 ppm
MIC ([4]; ATCC15442, 24 h, read-out: MIC of component acting alone (QA / QB), P. aeruginosa 15442, TSB, 24 hours): 50 µg/mL
MIC ([4]; ATCC15442, 48 h, read-out: MIC of component acting alone (QA / QB), P. aeruginosa 15442, M9GY, 48 hours): 20 µg/mL
MIC ([4]; ATCC15442, 48 h, read-out: MIC of component acting alone (QA / QB), P. aeruginosa 15442, TSB, 48 hours): 60 µg/mL
MIC ([4]; ATCC15442, 48 h, read-out: Qa: end-point activity (MIC) of MI in the mixture (MI alone, QA, where Qb = 0), Table 5, P. aeruginosa 15442, M9GY, 48 hours, B = Linoleamidopropyl PG-dimonium chloride phosphate): 30 µg/mL
MIC ([4]; ATCC15442, 48 h, read-out: Qa: end-point activity (MIC) of MI in the mixture (MI alone, QA, where Qb = 0), Table 5, P. aeruginosa 15442, TSB, 48 hours, B = Linoleamidopropyl PG-dimonium chloride phosphate): 80 µg/mL
MIC ([4]; ATCC15442, 48 h, read-out: Qa: end-point activity (MIC) of MI in the mixture (MI alone, QA, where Qb = 0), Table 6, P. aeruginosa 15442, TSB, 48 hours, B = Cocamidopropyl PG-dimonium chloride phosphate): 80 µg/mL
MIC ([4]; ATCC15442, 72 h, read-out: MIC of component acting alone (QA / QB), P. aeruginosa 15442, TSB, 72 hours): 70 µg/mL
MIC ([4]; ATCC15442, 72 h, read-out: Qa: end-point activity (MIC) of MI in the mixture (MI alone, QA, where Qb = 0), Table 6, P. aeruginosa 15442, M9GY, 72 hours, B = Cocamidopropyl PG-dimonium chloride phosphate): 30 µg/mL
SI (calculated synergy index) ([4]; Table 5, P. aeruginosa 15442, M9GY, 48 hours): 1.00
SI (calculated synergy index) ([4]; Table 5, P. aeruginosa 15442, TSB, 48 hours): 1.00
SI (calculated synergy index) ([4]; Table 6, P. aeruginosa 15442, M9GY, 72 hours): 1.00
SI (calculated synergy index) ([4]; Table 6, P. aeruginosa 15442, TSB, 48 hours): 1.00
